Source: patent publication US20170281676A1, “HIV-CURE” (Lupus Foundation of Gainesville, priority 2016, published 2017)
Read-outs that look alike come from different tables or passages of the source.

Tests used:
[1] = human, in vivo
HIV virus [2] = details: surfaces, 70% v/v ethanol, cited from earlier work
[3] = in vivo; cited from earlier work
[4] = in vivo; cited from earlier work; remark: listed apart in the source
HIV-1 = details: cited from earlier work
[5] = test system: human macrophage hybridoma cell line and primary monocytes; details: ethanol equivalent to 115, 345 and 690 mg/dl, 16 hours, then infected with HIV-1; cited from earlier work
[6] = test system: peripheral blood lymphocytes; details: concentrations 300-790 mg/dl; cited from earlier work
[7] = test system: Feline Immunodeficiency Virus (FIV); details: by denaturing their molecules; cited from earlier work
[8] = test system: bloodstream catheter-related infections; details: injected preventively in central venous catheters; cited from earlier work
[9] = in vivo; cited from earlier work; remark: listed apart in the source
[10] = test system: primary human brain microvascular endothelial cells; details: concentrations equivalent to 79 mg/dl and 237 mg/dl; cited from earlier work
HIV [11] = details: HIV-positive person, 2 years after discharge; earlier viral load 60,000 copies per ml; never on antiretroviral medication
Source text: (§1) A person was brought to the emergency room by ambulance. The inventor was called to intubate for respiratory support. […] They were intubated with propofol and admitted to ICU. […] During the ICU stay, they were maintained in coma with propofol infusions and some opioid analgesics and muscle paralyzers, intubated and mechanically ventilated. Fluids given were mostly Ringer's lactate and dextrose 5% in water. Due to lack of history, the ICU staff assumed they were a chronic alcoholic. […] So, they treated the patient with ethanol infusion, trying to decrease the level slowly over days.

[12] = human, in vivo; remark: listed apart in the source
Source text: as §1

HIV [13] = details: by denaturing their molecules; cited from earlier work
HIV virus [14] = details: cited from earlier work
[15] = in vivo; cited from earlier work; remark: listed apart in the source
[16] = most animal species; cited from earlier work
[17] = mice, cited from earlier work
[18] = monkeys, 100 ppm for 2 years; cited from earlier work
[19] = humans exposed in workplace; cited from earlier work
[20] = water, alcohol, and organic solvents; cited from earlier work

## CCO [ethanol]
[1]
  time to reach a level below 100 mg/dl: 16 to 20 h
HIV virus [2]; in some conditions, up to
  time of contact needed for the inactivation of HIV virus: up to 4 minutes
HIV virus [2]
  time of contact needed for the inactivation of HIV virus: 2 min
[3]
  placental penetration: penetrates well the placenta
[4]
  factor between breath and blood concentrations: around 2300
  rise of serum concentration after loading dose: about 100 mg/dL
HIV-1; ethanol tested at 115, 345 and 690 mg/dl
  HIV-1 replication, another study: same results
HIV-1; human peripheral blood mononuclear cells, levels at the range of 400 mg/dl or less
  HIV-1 replication: increase the HIV-1 replication
[5]
  effects in the immunogenic tests of the cells: immunosuppressive effects
[6]
  HIV DNA in peripheral blood lymphocytes and their proliferation: increase
[7]
  inactivation of FIV in vitro: inactivate
[8]
  risk of bloodstream catheter-related infections: decrease the risk
[9]
  blood level at usual starting of a comatose state: 400 mg/dL
[10]
  apoptosis induced by HIV-1 proteins: strongly potentiate
HIV [11]
  HIV viral load: undetectable
[12]
  permanent organ damage: without causing any permanent organ damage
HIV [13]
  inactivation of HIV in vitro: inactivate
HIV virus [14]; human albumin and plasma products at 18,000 mg/dl and higher
  damage to the product: no damage to the product was caused
HIV virus [14]; human albumin and plasma products, and even higher
  concentration used for in vitro inactivation of HIV virus: ≥ 18,000 mg/dl

## CC(C)O [isopropanol]
[15]
  serum elimination half-life: 2.5 to 8 h
[16]
  median lethal dose: 4000 mg/kg
[7]
  inactivation of FIV in vitro: inactivate
HIV [13]
  inactivation of HIV in vitro: inactivate

## C1CO1 [ethylene oxide]
[17]; 100 ppm for 2 years
  mortality: did not have increased mortality
[17]; exposure to 400 ppm for 14 days
  mortality: no death
[17]; higher levels like 800 ppm
  mortality: deadly in 4 hours
[18]
  mortality: did not have increased mortality
[19]
  mortality: no increase in mortality
[20]
  solubility: dissolves easily

## CO [methanol]
[7]
  inactivation of FIV in vitro: inactivate
HIV [13]
  inactivation of HIV in vitro: inactivate

## OCCO [ethylene glycol]
[7]
  inactivation of FIV in vitro: inactivate
HIV [13]
  inactivation of HIV in vitro: inactivate
